In the supplement of paper PMC8149375:

Columns and labels:
Details in all cases: treatment: drug + dasatinib (fixed dose, not stated); 5 days
[1] = system: SN12C; assay: AUC of dose-response viability curve, drug + dasatinib, normalised to DMSO (arbitrary (AUC of normalised viability)); higher = less growth inhibition
Description: (§1)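 Primary HTS combination arm: 8 RCC cell lines treated with 8 doses (up to 10 uM) of each library drug plus a fixed dose of dasatinib (dose not stated) for 5 days; viability read by CellTiter-Glo and normalised to DMSO. GI50 was fitted with XLfit, AUC is the area under the dose-response curve, and minimum viability is the lowest fraction of DMSO viability across doses.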

[2] = system: TK-10; assay: as above
Description: as §1

[3] = system: 769-P; assay: as above
Description: as §1

[4] = system: ACHN; assay: as above
Description: as §1

[5] = system: A498; assay: as above
Description: as §1

[6] = system: CAKI-1; assay: as above
Description: as §1

[7] = system: UO-31; assay: as above
Description: as §1

[8] = system: 786-O; assay: as above
Description: as §1

[9] = system: SN12C; assay: GI50 of drug in presence of dasatinib; higher = less potent
Description: as §1

[10] = system: TK-10; assay: as above
Description: as §1

[11] = system: 769-P; assay: as above
Description: as §1

[12] = system: ACHN; assay: as above
Description: as §1

[13] = system: A498; assay: as above
Description: as §1

[14] = system: CAKI-1; assay: as above
Description: as §1

[15] = system: UO-31; assay: as above
Description: as §1

[16] = system: 786-O; assay: as above
Description: as §1

[17] = system: SN12C; assay: minimum viability across doses, drug + dasatinib, relative to DMSO (fraction); higher = less growth inhibition
Description: as §1

[18] = system: TK-10; assay: as above
Description: as §1

[19] = system: 769-P; assay: as above
Description: as §1

[20] = system: ACHN; assay: as above
Description: as §1

[21] = system: A498; assay: as above
Description: as §1

[22] = system: CAKI-1; assay: as above
Description: as §1

[23] = system: UO-31; assay: as above
Description: as §1

[24] = system: 786-O; assay: as above
Description: as §1

Compound	GI50 of drug [12] [µM]	GI50 of drug [16] [µM]	AUC of dose-response viability curve [1]	AUC of dose-response viability curve [2]	AUC of dose-response viability curve [3]	AUC of dose-response viability curve [4]	AUC of dose-response viability curve [5]	AUC of dose-response viability curve [6]	AUC of dose-response viability curve [7]	AUC of dose-response viability curve [8]	GI50 of drug [9] [µM]	GI50 of drug [10] [µM]	GI50 of drug [11] [µM]	GI50 of drug [13] [µM]	GI50 of drug [14] [µM]	GI50 of drug [15] [µM]	minimum viability across doses [17]	minimum viability across doses [18]	minimum viability across doses [19]	minimum viability across doses [20]	minimum viability across doses [21]	minimum viability across doses [22]	minimum viability across doses [23]	minimum viability across doses [24]
Nc1nc(N)c2nc(-c3cccc(O)c3)c(-c3cccc(O)c3)nc2n1 [TG100-115] + Cc1nc(Nc2ncc(C(=O)Nc3c(C)cccc3Cl)s2)cc(N2CCN(CCO)CC2)n1 [dasatinib]	2.73	> 10	2.52	2.71	2.32	2.04	3.23	2.12	3.95	2.76	> 10	> 10	6.88	> 10	3.15	> 10	0.637	0.739	0.463	0.368	0.882	0.308	1.03	0.681
NC(=O)Nc1sc(-c2ccc(F)cc2)cc1C(N)=O [TPCA-1] + Cc1nc(Nc2ncc(C(=O)Nc3c(C)cccc3Cl)s2)cc(N2CCN(CCO)CC2)n1 [dasatinib]	0.346	2.54	2.35	1.94	2.22	1.7	3.33	1.81	3.28	2.09	> 10	0.848	2.18	> 10	0.458	3.72	0.405	0.176	0.232	0.184	0.711	0.076	0.212	0.258
Cc1[nH]c(/C=C2\C(=O)Nc3ccccc32)c(C)c1CCC(=O)O [TSU-68] + Cc1nc(Nc2ncc(C(=O)Nc3c(C)cccc3Cl)s2)cc(N2CCN(CCO)CC2)n1 [dasatinib]	> 10	> 10	2.32	2.77	2.42	1.94	3.61	2.29	1.95	2.39	> 10	> 10	> 10	> 10	> 10	> 10	0.609	0.74	0.66	0.512	0.699	0.595	1.07	0.61
CC(C)c1ccccc1Cc1cc(C(=O)Nc2ccc(S(=O)(=O)c3ccccc3C(C)(C)C)cc2)c(O)c(O)c1O [TW-37] + Cc1nc(Nc2ncc(C(=O)Nc3c(C)cccc3Cl)s2)cc(N2CCN(CCO)CC2)n1 [dasatinib]	0.344	1.21	2.6	2.18	2.19	1.58	3.28	1.77	4.4	2.07	> 10	3.06	1.57	> 10	0.506	9.77	0.519	0.325	0.0407	0.0767	0.773	0.0425	0.416	0.124

Now from value to molecule, other results behind:

GI50 of drug [12] [µM]	GI50 of drug [16] [µM]	Compound	AUC of dose-response viability curve [1]	AUC of dose-response viability curve [2]	AUC of dose-response viability curve [3]	AUC of dose-response viability curve [4]	AUC of dose-response viability curve [5]	AUC of dose-response viability curve [6]	AUC of dose-response viability curve [7]	AUC of dose-response viability curve [8]	GI50 of drug [9] [µM]	GI50 of drug [10] [µM]	GI50 of drug [11] [µM]	GI50 of drug [13] [µM]	GI50 of drug [14] [µM]	GI50 of drug [15] [µM]	minimum viability across doses [17]	minimum viability across doses [18]	minimum viability across doses [19]	minimum viability across doses [20]	minimum viability across doses [21]	minimum viability across doses [22]	minimum viability across doses [23]	minimum viability across doses [24]
0.287	3.57	Nc1cccc(-c2cc3c(Oc4cccc(O)c4)ncnc3[nH]2)c1 [TWS119] + Cc1nc(Nc2ncc(C(=O)Nc3c(C)cccc3Cl)s2)cc(N2CCN(CCO)CC2)n1 [dasatinib]	2.33	2.34	1.93	1.62	3.56	2.11	3.25	2.39	3.6	1.48	0.798	> 10	1.74	3.66	0.25	0.0898	0.0643	0.126	0.653	0.07	0.0374	0.288
3.27	> 10	COc1cc2c(N3CCN(C(=O)Nc4ccc(OC(C)C)cc4)CC3)ncnc2cc1OCCCN1CCCCC1 [Tandutinib (MLN518)] + Cc1nc(Nc2ncc(C(=O)Nc3c(C)cccc3Cl)s2)cc(N2CCN(CCO)CC2)n1 [dasatinib]	2.45	2.83	2.45	2.15	2.96	2.35	3.35	2.67	> 10	> 10	> 10	> 10	4.78	> 10	0.644	0.647	0.555	0.387	0.705	0.384	0.527	0.523
7.5	4	CNC(=O)c1cc(COc2nnc(Nc3ccc(Cl)cc3)c3ccoc23)ccn1 [Telatinib (BAY 57-9352)] + Cc1nc(Nc2ncc(C(=O)Nc3c(C)cccc3Cl)s2)cc(N2CCN(CCO)CC2)n1 [dasatinib]	2.51	2.45	2.25	2.22	3.74	2.19	4	2.23	> 10	4.84	5.53	> 10	3.47	> 10	0.673	0.334	0.355	0.474	0.784	0.188	0.989	0.0325
